These results are taken from US20100093613A1, “METHODS FOR IDENTIFYING AGENTS AND THEIR USE FOR THE PREVENTION OR STABILIZATION OF FIBROSIS” (priority 2007, published 2010).

The assay concerns Bronchial epithelial cells + Fibroblasts. Put plainly: BioMAP BF4T system (IL-4 + TNF-α), scoring of readout parameters. It is filed as cell-based, human. The arrangement: key: 1 = modulated in desired direction, 0 = not (−1 if opposite). The note with it: for MMP-3 score / PAI-1 score: desired change decrease; for MMP-1 score / uPA score: desired change increase. As to the method:
In the “BF4T” system, bronchial epithelial cells, usually primary human bronchial epithelial cells, are cultured with fibroblasts, usually primary human fibroblasts, in the presence of TNF-α and IL-4. In addition to the factors, stimuli of interest that may be included in the culture medium include TGF-β, IL-5, II-10, IL-9, Tryptase, GM-CSF, II-17, CD40L, Histamine, IgE stimulated Mast Cells, LTB4 stimulated neutrophils, and PBMC stimulated with LPS or SAg.
Human neonatal fibroblasts (HDFn) and normal human bronchial epithelial cells (BrEPI) are used. Human lung fibroblasts (adult or neonatal) could also be used. HDFn are cultured in DMEM/F12 (50/50) from Cellgro, supplemented with LSGS kit (from Cascade Biologics); fetal bovine serum, 2% v/v, hydrocortisone 1 μg/ml, human epidermal growth factor 10 ng/ml, basic fibroblast growth factor 3 ng/ml and heparin 10 μg/ml, and penicillin/streptomycin amphotericin B solution (PSA). BrEPI are cultured in supplemented BEBM medium (Cambrex) at 2×10^4/ml. BrEPI may also be cultured with Bronchial/Tracheal Epithelial Cell Serum-Free Growth Medium (Cell Applications, Inc.) or F12/DMEM supplemented with 10 μg/ml rhu-insulin, 10 μg/ml transferrin, 10 ng/ml epidermal growth factor (EGF), 1 μM ethanolamine, 25 μg/ml aprotinin, 25 μg/ml glucose, 1 μM phosphoethanolamine, 5 μM triiodothyronine, 50 nM selenium, 1 nM hydrocortisone, 1 nM progesterone, 5 μM forskolin, 10 μM heregulin β177-244, 5 μl/ml fibronectin, 4 μl/ml bovine pituitary extract and retinoid acid. HDFn are plated for assays at 3×10^4 cells/ml. After 2 days, media is replaced with BrEPI media containing 10^4 BrEPI cells and cultured for a further 2 days.
Upon reaching confluency, the test agent or buffer control is added and the following are applied: 5 ng/ml of IL-4 and 5 ng/ml TNF-α (BF4T). After another 24 hours incubation (37° C., 5% CO2) the cultures are evaluated for the following parameters: CD90, Keratin 8/18, Eotaxin-3, I-TAC, ICAM-1, EGFR, IL-1α, IL-8, MCP-1, MMP-9, MMP-1, MMP-3, PAI-1, TGF-β3, TIMP-2, uPA, tPA, CD87 and VCAM-1. Additional readouts of interest may include IP-10, Elafin/SKALP, Endothelin-1, Gro-a, CD119, IL-6, GM-CSF, IL-16, FGF, PDGF, CD44, E-cadherin, CD40, IL-15Ralpha, CD1d, CD80, CD86, TARC, eotaxin-1, CD95, MCP-4 and MIP-3a. Other stimuli of interest include: TGFbeta, IL-5, II-10, IL-9, Tryptase, GM-CSF, II-17, CD40L, Histamine, IgE stimulated Mast Cells, LTB4 stimulated neutrophils, and PBMC stimulated with LPS or SAg.
Each screened compound is scored according to its modulation of the selected readout parameters. Compounds receive a positive score (score of 1) or negative score (score of 0) for each readout parameter set forth in Table 2 that is modulated in the desired direction. […] Parameters may be penalized by making the positive score a −1 for parameters where regulation is opposite to the desired direction.
Cell culture. Human umbilical vein endothelial cells (HUVEC) were pooled from multiple donors, cultured according to standard methods, and plated into microtiter plates at passage 4. Cell culture medium for all systems containing HUVEC included hydrocortisone. Coronary artery smooth muscle cells (CASM3C) and umbilical artery smooth muscle cells (HSM3C) were cultured according to standard procedures. Peripheral blood mononuclear cells (PBMC) were prepared from buffy coats from normal human donors according to standard methods. Monocyte-derived macrophages were differentiated in the presence of M-CSF for 7 d according to standard procedures. Human dermal fibroblasts were pooled from 3 donors, cultured according to standard methods, and plated confluent 24 h before stimulation. Cell culture medium for all systems containing fibroblasts and keratinocytes contained low hydrocortisone. Epidermal keratinocytes and bronchial epithelial cells from 3 donors were cultured according to standard procedures and pooled when plated into microtiter plates.

Turning to `C[C@]12C=CC(=O)C=C1CC[C@@H]1[C@@H]2[C@@H](O)C[C@@]2(C)[C@H]1CC[C@]2(O)C(=O)CO` [Prednisolone], the MMP-3 score came out at 0, the PAI-1 score is recorded as 0, the MMP-1 score is on record as 0 and the uPA score amounted to 0.
Turning to `O=c1cc(-c2ccc(O)c(O)c2)oc2cc(O)cc(O)c12` [Luteolin], the MMP-3 score stood at 0, the PAI-1 score came to 1, the MMP-1 score was 0 and the uPA score turned out to be 0.
As for Antimycin A, the MMP-3 score turned out to be 0, the PAI-1 score is on record as 0, the MMP-1 score stood at 0 and the uPA score came to 1.
Take `CCN(CC)CCNc1ccc(CO)c2sc3ccccc3c(=O)c12` [Hycanthone]: the MMP-3 score stood at 0, the PAI-1 score amounted to 0, the MMP-1 score is on record as 0 and the uPA score is listed as 0.
Consider `CCCCN(CCCC)CCC(O)c1cc2c(Cl)cc(Cl)cc2c2cc(C(F)(F)F)ccc12` (stereo not drawn) [Halofantrine], for which the MMP-3 score was determined as 0, the PAI-1 score is reported as 1, the MMP-1 score stood at 0 and the uPA score came out at 0.
For the compound `Cc1c(Cl)cccc1Nc1ccccc1C(=O)O` [Tolfenamic Acid], the MMP-3 score is on record as 1, the PAI-1 score amounted to 1, the MMP-1 score amounted to 0 and the uPA score stood at 0.
Consider `O=C(O)c1ccccc1Nc1cccc(C(F)(F)F)c1` [Flufenamic Acid], for which the MMP-3 score was determined as 0, the PAI-1 score was found to be 1, the MMP-1 score stood at 0 and the uPA score turned out to be 0.
For `Cn1cnc([N+](=O)[O-])c1Sc1ncnc2nc[nH]c12` [Azathioprine], the MMP-3 score is given as 0, the PAI-1 score turned out to be 0, the MMP-1 score is 0 and the uPA score was 0.
Regarding `COc1cc(-c2ccc(=O)[nH]n2)ccc1OC(F)F` [Zardaverine], the MMP-3 score came out at 0, the PAI-1 score came to 1, the MMP-1 score was 0 and the uPA score worked out at 0.
(R)-(−)-Apomorphine: the MMP-3 score worked out at 0, the PAI-1 score was found to be 0, the MMP-1 score is 0 and the uPA score is listed as 0.
`COC(=O)Nc1nc2ccc(SC(C)C)cc2[nH]1` [Methiazole]: the MMP-3 score is listed as 1, the PAI-1 score turned out to be 1, the MMP-1 score came to 0 and the uPA score was 0.
`COc1cc2c(c(OC)c1OC)-c1ccc(OC)c(=O)cc1[C@@H](NC(C)=O)CC2` [Colchicine]: the MMP-3 score is listed as 0, the PAI-1 score was 0, the MMP-1 score amounted to 0 and the uPA score worked out at 0.
For `Fc1ccc(C(OCCN2CCN(CCCc3ccccc3)CC2)c2ccc(F)cc2)cc1` [GBR 12909], the MMP-3 score amounted to 0, the PAI-1 score is on record as 0, the MMP-1 score came out at 0 and the uPA score is on record as 0.
On to `C=C1CC[C@H](O)C/C1=C/C=C1\CCC[C@]2(C)[C@@H]([C@H](C)/C=C/[C@H](C)C(C)C)CC[C@@H]12` [Calciferol], for which the MMP-3 score is recorded as 0, the PAI-1 score is 0, the MMP-1 score was 0 and the uPA score amounted to 1.
On to `CCc1oc2ccccc2c1C(=O)c1cc(Br)c(O)c(Br)c1` [Benzbromarone], for which the MMP-3 score stood at 1, the PAI-1 score is 0, the MMP-1 score is given as 0 and the uPA score amounted to 0.
